# Patent US20220378773A1, “METHODS FOR TREATING LEUKEMIA AND USE OF A LEUKEMIC STEM CELL SIGNATURE TO PREDICT CLINICAL SENSITIVITY TO THERAPIES” (CELGENE CORPORATION, priority 2019, published 2022)
# Entries after “also recorded” stand apart in the source; their conditions may differ. Marks after values point to notes of the source that are not given here.
# How the values were obtained:
# [1] = system: leukemic stem cells (LSCs); experiment: Secondary transplantation without limiting dilution; type: in vivo, NOD/SCID mice
# Method: (§1) For secondary transplant NOD/SCID mice were sublethally irradiated (275 cGy) and pretreated with anti-CD122 antibody (200 μg/mouse) to deplete residual host natural killer cells. On the day of transplantation, viably frozen cells harvested from the vehicle- or Compound D-treated primary mice were thawed, counted, mouse-cell depleted (Mouse Cell Depletion Kit, Miltenyi Biotec, USA), and transplanted intrafemorally into the pretreated secondary mice at limiting doses described above. For secondary transplant without LDA, thawed cells were not depleted of mouse cells before transplantation. At 12 weeks post secondary transplantation, mice were euthanized, and bone marrow was collected and analyzed.
# To determine if quiescent LSCs are resistant to Compound D, secondary transplantation of AML cells of high responders was performed. High responders were identified as samples in which leukemia cells were almost undetectable in the primary mouse bone marrow following Compound D treatment. If rare quiescent LSCs are maintained in the residual leukemia cells following Compound D dosing, then those quiescent LSCs may become active and repopulate secondary mice after undergoing serial transplantations. Four LSC17 high samples that had AML blasts eradicated by Compound D treatment were selected for secondary transplantation (see Table 9) by injecting total combined bone marrow cells collected from 5 primary mice treated with either vehicle or Compound D into 5 secondary mice. In this way cells collected from one primary mouse were injected into one secondary mouse without any cell dose dilution or losing any residual cells. […] Cells from AML Patient 150238 harvested from vehicle-treated primary mice repopulated only one of 5 secondary mice.
# GSPT1 = biological target: T1, GSPT1 (Homo sapiens, UniProt P15170+Q96SW2); experiment: In vivo GSPT1 expression in xenograft AML model (intracellular FACS); set-up: species or system mice
# T1 construct: endogenous in cells; host or cells: primary AML patient cells (peripheral blood mononuclear cells) in short-term suspension culture
# Method: After 4 weeks of transplantation with AML cells, mice were treated with Compound D at 2.5 mg/kg twice a day for 3 doses totally. Four hours after the last treatment, cells were harvested from both injected RF and non-injected BM of each mouse and were stained with CD45-FITC (BD Biosciences, USA), fixed and permeabilized. Cells were then stained with GSPT1-Alexa Fluor 647 for intracellular FACS to detect the expression of GSPT1 in engrafted leukemic cells.
# [2] = system: leukemic stem cells (LSCs); experiment: Secondary xenograft limiting dilution assay (LDA); type: in vivo, NOD/SCID mice; conditions: for Fold reduction of LSC frequency by Compound D: relative to vehicle; for No. mice engrafted/No. mice transplanted: from Compound D-treated primary mice
# Method: Secondary xenograft limiting dilution assay: To determine whether Compound D targeted leukemia stem cells with self-renewal ability, which are considered to contribute to leukemia progression, therapy-resistance, and relapse, secondary transplantation was performed using LDA. Limiting dilution assays are designed to define an unknown frequency of LSCs in the total leukemia graft of primary mice. LDA analysis in secondary transplantation will allow quantitative determination whether Compound D targets LSCs with self-renewal ability in primary mice. For this, multiple cell doses were used for secondary transplant to achieve both a positive response (engrafted mice at high cell doses) and a negative response (non-engrafted mice at lowest cell dose). Four different AML cell doses for each treated group (1 million, 500,000, 50,000 and 2000 cells/mouse) with 5 mice per cell dose, totally 40 mice for each AML graft sample. For any sample that was considered aggressive, LDA was performed with lower cell doses. The frequency of LSCs was analyzed using the Walter and Eliza Hall Institute (WEHI) bioinformatics extreme limiting dilution analysis (ELDA) software (bioinf.wehi.edu.au).
# as §1
# Limiting dilution assay: Limiting dilution assays were used to define the frequency of leukemia stem cells in the total leukemia graft of the primary mice. Therefore, analysis of LDA in secondary transplantation will allow quantitative determination whether Compound D targets leukemia stem cells with self-renewal ability in primary mice. For this, multiple cell doses were used for secondary transplant to achieve both a positive response (engrafted mice at high cell doses) and a negative response (non-engrafted mice at lowest cell dose). Four different AML cell doses for each treated group were used (1 million, 500,000, 50,000 and 2000 cells/mouse) with 5 mice per cell dose, totally 40 mice for each leukemia graft sample. For any sample that was considered aggressive, LDA was performed with lower cell doses. The frequency of LSCs was analyzed using the Walter and Eliza Hall Institute (WEHI) bioinformatics extreme limiting dilution analysis (ELDA) software (bioinfwehi.edu.au).
# Intrafemoral transplantation: One day prior to transplantation, NOD/SCID mice were sublethally irradiated (275 cGy) and pretreated with anti-CD122 antibody (200m/mouse) to deplete residual host natural killer cells. On the day of transplantation, viably frozen cells harvested from combined vehicle- or Compound D-treated (2.5 mg/kg intraperitoneally twice daily for 14 days, Section 6.1) primary mice were thawed, counted, mouse cell depleted, and transplanted intrafemorally into the pretreated secondary mice at limiting doses in a total volume of 30 μl. For the Compound D-treated samples with low human AML engraftment 25%), cells from both RF and BM were combined and 2 rounds of mouse depletion were performed to ensure a high human AML cell purity. […] Mouse cell depletion was performed following the instructions provided by Miltenyi Biotec (Mouse Cell Depletion Kit, catalogue number 130-104-694, Miltenyi Biotec, Germany). […]
# T1 sequence (P15170 whole entry): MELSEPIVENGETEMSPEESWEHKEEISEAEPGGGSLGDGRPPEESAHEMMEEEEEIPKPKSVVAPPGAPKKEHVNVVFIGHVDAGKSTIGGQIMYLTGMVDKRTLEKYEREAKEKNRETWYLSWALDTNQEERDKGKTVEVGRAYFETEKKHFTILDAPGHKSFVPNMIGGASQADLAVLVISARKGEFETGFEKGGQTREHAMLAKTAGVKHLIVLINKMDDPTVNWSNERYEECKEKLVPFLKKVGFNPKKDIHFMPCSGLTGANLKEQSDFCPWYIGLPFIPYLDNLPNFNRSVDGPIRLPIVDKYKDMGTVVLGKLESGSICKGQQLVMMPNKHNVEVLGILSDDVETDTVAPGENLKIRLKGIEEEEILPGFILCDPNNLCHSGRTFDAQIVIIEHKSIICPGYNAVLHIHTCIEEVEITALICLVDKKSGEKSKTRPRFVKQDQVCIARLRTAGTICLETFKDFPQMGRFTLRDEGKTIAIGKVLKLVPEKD
# T1 sequence (Q96SW2 whole entry): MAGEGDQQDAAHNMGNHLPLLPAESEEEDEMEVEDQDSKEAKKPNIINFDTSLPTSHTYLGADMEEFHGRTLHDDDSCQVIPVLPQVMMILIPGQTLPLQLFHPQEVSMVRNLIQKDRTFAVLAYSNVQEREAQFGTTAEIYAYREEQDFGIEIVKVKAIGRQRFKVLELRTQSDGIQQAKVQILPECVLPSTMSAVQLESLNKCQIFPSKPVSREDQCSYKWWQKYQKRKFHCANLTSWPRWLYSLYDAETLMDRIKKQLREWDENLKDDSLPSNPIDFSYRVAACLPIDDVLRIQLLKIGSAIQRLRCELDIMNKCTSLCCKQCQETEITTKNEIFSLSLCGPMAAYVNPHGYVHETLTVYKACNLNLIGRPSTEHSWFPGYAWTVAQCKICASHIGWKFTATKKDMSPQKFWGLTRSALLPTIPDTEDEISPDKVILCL
# T1 sequence (Q16531 whole entry partner): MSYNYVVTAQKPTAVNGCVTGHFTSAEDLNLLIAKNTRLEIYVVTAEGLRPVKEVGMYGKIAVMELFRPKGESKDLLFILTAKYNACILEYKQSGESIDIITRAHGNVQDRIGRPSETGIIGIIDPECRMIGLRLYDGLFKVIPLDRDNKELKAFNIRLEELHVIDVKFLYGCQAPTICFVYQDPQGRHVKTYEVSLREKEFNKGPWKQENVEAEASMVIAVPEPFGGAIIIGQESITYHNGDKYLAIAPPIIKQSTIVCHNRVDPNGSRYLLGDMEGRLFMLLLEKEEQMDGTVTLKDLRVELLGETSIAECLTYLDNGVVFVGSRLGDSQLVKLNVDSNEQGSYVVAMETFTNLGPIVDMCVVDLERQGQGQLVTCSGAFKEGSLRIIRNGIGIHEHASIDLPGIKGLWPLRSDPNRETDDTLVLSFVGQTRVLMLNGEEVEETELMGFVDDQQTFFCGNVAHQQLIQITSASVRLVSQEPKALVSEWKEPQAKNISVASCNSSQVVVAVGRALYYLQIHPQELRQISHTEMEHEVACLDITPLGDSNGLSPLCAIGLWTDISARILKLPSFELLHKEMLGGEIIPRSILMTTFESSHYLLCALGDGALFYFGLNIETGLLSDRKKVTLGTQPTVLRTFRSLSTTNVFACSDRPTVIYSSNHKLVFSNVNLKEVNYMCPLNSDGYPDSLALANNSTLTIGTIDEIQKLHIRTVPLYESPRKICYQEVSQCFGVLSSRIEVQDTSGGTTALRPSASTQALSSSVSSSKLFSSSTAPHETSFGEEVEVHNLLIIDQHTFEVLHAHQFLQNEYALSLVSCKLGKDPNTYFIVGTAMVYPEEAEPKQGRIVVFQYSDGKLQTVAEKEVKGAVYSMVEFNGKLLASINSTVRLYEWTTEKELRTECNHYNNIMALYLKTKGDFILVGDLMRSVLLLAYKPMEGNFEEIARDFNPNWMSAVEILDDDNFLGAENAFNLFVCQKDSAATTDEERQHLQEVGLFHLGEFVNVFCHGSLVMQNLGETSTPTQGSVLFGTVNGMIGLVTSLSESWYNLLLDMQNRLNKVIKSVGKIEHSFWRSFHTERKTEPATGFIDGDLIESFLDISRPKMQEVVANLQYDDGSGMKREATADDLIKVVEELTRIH
smiles,measurement,setting,value
"O=C1CCC(N2Cc3cc(CNC(=O)C(F)(F)c4ccc(Cl)cc4)ccc3C2=O)C(=O)N1 (centres unmarked) [Compound D, 2-(4-chlorophenyl)-N-((2-(2,6-dioxopiperidin-3-yl)-1-oxoisoindolin-5-yl)methyl)-2,2-difluoroacetamide]",repopulation of secondary mice,"[1]; AML 0590 and AML 110102, cells from Compound D-treated primary mice",did not repopulate the secondary mice
same,LSC Status in Secondary Mice Injected with Compound D Treated Primary Cells,[1]; Patient 110625,repopulated the bone marrow of one secondary mouse; also recorded: LSC in BM
same,No. mice with LSC engrafted/No. injected mice in the group,"[1]; Patient 110625, cells from Compound D-treated primary mice",1/5 (in BM
same,LSC Status in Secondary Mice Injected with Compound D Treated Primary Cells,[1]; Patient 130311,did not proliferate/repopulate any of the secondary mice; also recorded: not engrafted
same,No. mice with LSC engrafted/No. injected mice in the group,"[1]; Patient 130311, cells from Compound D-treated primary mice",0/4
same,LSC Status in Secondary Mice Injected with Compound D Treated Primary Cells,[1]; Patient 130826,did not proliferate/repopulate any of the secondary mice; also recorded: not engrafted
same,No. mice with LSC engrafted/No. injected mice in the group,"[1]; Patient 130826, cells from Compound D-treated primary mice",0/5
same,LSC Status in Secondary Mice Injected with Compound D Treated Primary Cells,[1]; Patient 150238,did not repopulate any secondary mice; also recorded: no LSC
same,No. mice with LSC engrafted/No. injected mice in the group,"[1]; Patient 150238, cells from Compound D-treated primary mice",0/5
same,levels of GSPT1 in engrafted leukemia cells,"GSPT1; 2.5 mg/kg twice a day, 3 doses, 17 samples","decreased in RF or BM, or in both RF and BM in the majority of 17 samples tested"
same,GSPT1 reduction,GSPT1; Pt120287 and 110555,clear GSPT1 reduction in both RF and BM
same,GSPT1 reduction,GSPT1; Pt130607 and 150250,did not show dramatic GSPT1 reduction
same,AML engraftment in secondary mice,"[2]; AML 90191, cells from Compound D primary-treated mice, about 12 weeks",no AML engraftment
same,leukemia graft in secondary mice vs vehicle-treated cells,[2]; AML 110500,much lower leukemia graft
same,"LSC frequency, vehicle- vs Compound D-treated primary mice","[2]; AML 120860, non-injected BM data",no difference in LSC frequency; also recorded: no difference for LSC frequency
same,LSC frequency increase following treatment,[2]; AML Patient 110484,1.6 fold
same,LSC frequency increase following treatment,[2]; AML Patient 120846,1.8 fold
same,LSC frequency increase following treatment,[2]; AML Patient 120860,1.3 fold
same,LSC frequency increase following treatment,[2]; AML Patient 130695,12.6 fold
same,LSC frequency,[2]; AML Patient 130926 (responder),did not reduce LSC frequency
same,"LSC frequency (1/total number), Compound D","[2]; Patient 598, cells from RF of treated primary mice",675569 1/total number
same,Fold reduction of LSC frequency by Compound D,[2]; Patient 598,2.1 fold
same,"LSC frequency (1/total number), Compound D","[2]; Patient 90191, cells from RF + BM of treated primary mice",Not engrafted
same,"LSC frequency (1/total number), Compound D","[2]; Patient 100348, cells from RF + BM of treated primary mice",923814 1/total number
same,Fold reduction of LSC frequency by Compound D,[2]; Patient 100348,4.0 fold
same,"LSC frequency (1/total number), Compound D","[2]; Patient 110484, cells from RF of treated primary mice",1153831 1/total number
same,Fold reduction of LSC frequency by Compound D,"[2]; Patient 110484, negative sign = increase",−1.6 ^a fold
same,"LSC frequency (1/total number), Compound D","[2]; Patient 110500, cells from RF of treated primary mice",356239 1/total number
same,"LSC frequency (1/total number), Compound D","[2]; Patient 120791, cells from RF + BM of treated primary mice",Not engrafted
same,"LSC frequency (1/total number), Compound D","[2]; Patient 120846, cells from RF of treated primary mice",14523 1/total number
same,Fold reduction of LSC frequency by Compound D,"[2]; Patient 120846, negative sign = increase",−1.8 ^a fold
same,"LSC frequency (1/total number), Compound D","[2]; Patient 120860, cells from BM of treated primary mice",65626 1/total number
same,Fold reduction of LSC frequency by Compound D,"[2]; Patient 120860, negative sign = increase",−1.3 ^a fold
same,"LSC frequency (1/total number), Compound D","[2]; Patient 120899, cells from BM of treated primary mice",27120 1/total number
same,Fold reduction of LSC frequency by Compound D,[2]; Patient 120899,4.0 fold
same,"LSC frequency (1/total number), Compound D","[2]; Patient 121020, cells from RF+BM of treated primary mice",7562084 1/total number
same,Fold reduction of LSC frequency by Compound D,[2]; Patient 121020,1.5 fold
same,No. mice engrafted/No. mice transplanted,"[2]; Patient 130578, 5000 cells transplanted/mouse",0/5
same,No. mice engrafted/No. mice transplanted,"[2]; Patient 130578, 20000 cells transplanted/mouse",0/5
same,No. mice engrafted/No. mice transplanted,"[2]; Patient 130578, 50000 cells transplanted/mouse",2/5
same,No. mice engrafted/No. mice transplanted,"[2]; Patient 130578, 120000 cells transplanted/mouse",2/3
same,Fold reduction of LSC frequency by Compound D,[2]; Patient 130578,9.4 fold
same,"LSC frequency (1/total number), Compound D","[2]; Patient 130695, cells from RF of treated primary mice",36696 1/total number
same,Fold reduction of LSC frequency by Compound D,"[2]; Patient 130695, negative sign = increase",−12.6*** ^a fold
same,"LSC frequency (1/total number), Compound D","[2]; Patient 130712, cells from BM of treated primary mice",758064 1/total number
same,Fold reduction of LSC frequency by Compound D,[2]; Patient 130712,2.7 fold
same,"LSC frequency (1/total number), Compound D","[2]; Patient 130926, cells from RF + BM of treated primary mice",1207241 1/total number
same,Fold reduction of LSC frequency by Compound D,[2]; Patient 130926,1.0 fold
same,"LSC frequency (1/total number), Compound D","[2]; Patient 140171, cells from RF + BM of treated primary mice",Not engrafted
same,responsive leukemia samples with LSCs targeted,"[2]; mouse, in vivo",6 out of 10 samples
